The numbers were not newly measured in patent publication US20140100178A1, “COMPOSITION AND METHODS FOR SITE-SPECIFIC DRUG DELIVERY TO TREAT MALARIA AND OTHER LIVER DISEASES” (priority 2012, published 2014), which cites them from elsewhere.

The conditions of data set [1]: prophylactic doses (0.5 mg base/kg/day); children and men with normal G6PD activity; toxicity associated with >10%.
For data set [2] the following is noted: in vivo.

As for `COc1cc(NC(C)CCCN)c2ncccc2c1` (centres unmarked) [primaquine, Primaquine], the mean methemoglobin rates in data set [1] is 5.8%. Moreover, the half life in data set [2] was around 4 h.
